Experimental data taken from patent US20090104119A1, “Dendrimer Based Compositions And Methods Of Using The Same” (priority 2004, published 2009).

Experiments:
[1] = system: KB cells; assay: Inhibition of cell growth by XTT assay; format: cell-based, human; details: for inhibition of cell growth, XTT: 1, 2 or 3 days
Experimental: (§1) Cell culture and treatment.
Evaluation of dendrimer cytotoxicity.
Because the binding of the conjugate to KB cells reaches maximal uptake within 1 h (Quintana et al, 2002. Pharmaceutical Research 19: 1310-1316.), the effect of the G5-FI-FA-MTX on cell growth was initially tested by pre-incubation of cells with the conjugate for 1 h, followed by incubation in a drug-free medium for 5 d. […] When the cells were pre-incubated with dendrimers for 4 h, there was a modest decrease of about 10% in cell growth as determined by XTT assay. The cytotoxicity measurements were therefore done by incubation with the dendrimer for a minimum of 24 h, a pre-incubation time period shown to induce significant cytotoxicity.
The inhibition of cell growth induced by the conjugates was also tested by XTT assay which is based on the conversion of XTT to formazan by the active mitochondria of live cells (See, e.g., Roehm et al, J Immunol Methods 142, 257 (1991)).
As free FA blocks the uptake of the dendrimers as well as rescues cells from MTX-induced cytotoxicity, the effect of pre-incubation of cells with excess FA on the anti-proliferative effect of G5-FITC-FA-MTX was tested. KB cells were exposed to different concentrations of the conjugate or free MTX for 24 h in the absence or presence of 50 μM FA. The incubation medium was removed, the cells were rinsed and incubated with fresh medium for 5 additional days in the absence of the drugs, and the XTT assay was performed (See, e.g., FIG. 24, □, ▪, represents cells treated with MTX; Δ, ▴, represents cells treated with G5-FITC-FA-MTX).
The anti-proliferative effect of the MTX-conjugates was compared to conjugates that lacked either the FA or the FITC molecule. KB cells were incubated with 30 nM of the conjugates (=150 nM effective MTX concentration) for 24 h and the incubation medium was removed. The cells were rinsed and incubated for an additional 5 d in fresh medium in the absence of the drugs, and the XTT assay was performed.

[2] = system: KB cells; assay: Inhibition of cell growth by total cell protein; details: 150 nM FA with 150 nM MTX, 24 h, then 6 d fresh medium; total cell protein
Experimental: Cell culture and treatment. KB cells were maintained in folate-free medium containing 10% serum (See, e.g., Quintana et al, Pharm. Res. 19, 1310 (2002)) to provide extracellular FA similar to that found in human serum. Cells were plated in 12-well plates for uptake studies, in 24-well plates for cell growth analysis, and in 96-well plates for XTT assay. Cells were rinsed with FA-free medium containing dialyzed serum and incubated at 37° C. with dendrimer-drug conjugates for the indicated time periods and concentrations. KB cells were also maintained in RPMI medium containing 2 μM FA to obtain cells which express low FAR.
Evaluation of dendrimer cytotoxicity. Cell growth was determined by assay of the total protein in lysates of treated cells using a bicinchoninic acid reagent (PIERCE, and by XTT assay, using a kit from Roche.
Time course and dose dependent inhibition of cell growth. Previous studies have shown that MTX-induced cytotoxicity is detectable in vitro only if the medium is completely deprived of FA (See, e.g., Sobrero & Bertino, Int. J. Cell Cloning 4, 51 (1986)). The effect of the trifunctional dendrimers on cell growth was tested in cells incubated in a FA-deficient medium. Cells were treated with 300 nM conjugates (equivalent of 1500 nM MTX) or 1500 nM free MTX for 1-4 days, and cell proliferation was determined by estimation of cellular protein content. Cells were treated for 2 days with different concentrations of the conjugates or free MTX (the conjugate concentration is given as MTX equivalents, with 5 MTX per dendrimer molecule). KB cells which express high and low FAR were incubated with 30 nM of the dendrimers for 1 hr at 37° C., rinsed, and the fluorescence of cells was determined by flow cytometric analysis (See. e.g., FIG. 21, left panel).
KB cells were treated with 150 or 500 nM MTX in the presence or absence of equimolar concentrations of free FA for 24 h. […] The cells were rinsed to remove the drugs and incubated with fresh medium for an additional 6 d, and total cell protein was determined.

[3] = mouse, in vivo
Description: Recipient animal and tumor model. Immunodeficient, 6- to 8-weekold athymic nude female mice [Sim:(NCr) nu/nu fisol] were purchased from Simonsen Laboratories, Inc. (Gilroy, Calif.). Five- to 6-week-old Fox Chase severe combined immunodeficient (SCID; CB-17/lcrCrl-scidBR) female mice were purchased from the Charles River Laboratories (Wilmington, Mass.) and housed in a specific pathogen-free animal facility at the University of Michigan Medical Center in accordance with the regulations of the University's Committee on the Use and Care of Animals as well as with federal guidelines, including the Principles of Laboratory Animal Care. Animals were fed ad libitum with Laboratory Autoclavable Rodent Diet 5010 (PMI Nutrition International, St. Louis, Mo.). Three weeks before tumor cell injection, the food was changed to a folate-deficient diet (TestDiet, Richmond, Ind.). For urine and feces collection, animals were housed in metabolic rodent cages (Nalgene, Rochester, N.Y.).
Tumor cell line. The KB human cell line, which overexpresses the folate receptor (See, e.g., Turek et al, J Cell Sci 106, 423 (1993)), was purchased from the American Type Tissue Collection (Manassas, Va.) and maintained in vitro at 37° C., 5% CO2 in folate-deficient RPMI 1640 supplemented with penicillin (100 units/mL), streptomycin (100 μg/mL), and 10% heat-inactivated fetal bovine serum. Before injection in the mice, the cells were harvested with trypsin-EDTA solution, washed, and resuspended in PBS. The cell suspension (5×10^6 cells in 0.2 mL) was injected s.c. into one flank of each mouse using a 30-gauge needle. In the biodistribution studies, the tumors were allowed to grow for 2 weeks until reaching ˜0.9 cm^3 in volume. The formula chosen to compute tumor volume was for a standard volume of an ellipsoid, where V= 4/3π (½ length×½ width×½ depth). With an assumption that width equals depth and […], the formula used was V=½×length×width^2. Targeted drug delivery using conjugate injections was started on the fourth day after implantation of the KB cells.
Biodistribution and excretion of tritiated dendrimer. […] Both tritiumlabeled conjugates were delivered at equimolar concentrations of the modified dendrimer. At 5 minutes, 2 hours, 1 day, 4 days, and 7 days postinjection, the animals were euthanized and samples of tumor, heart, lung, liver, spleen, pancreas, kidney, and brain were taken. […] The mice were euthanized at 5 minutes, 1 day, and 4 days following injection, and tissues were harvested as above. Blood was collected at each time point via cardiac puncture. Each group included three to five mice. Urine and feces samples were collected at 2, 4, 8 and 12 hours and 1, 2, 3, and 4 days.
Radioactive tissue samples were prepared as described in Nigavekar et al, Pharm Res 21, 476 (2004). The tritium content was measured in a liquid scintillation counter (LS 6500, Beckman Coulter, Fullerton, Calif.). The values of measured radioactivity were adjusted for the counting efficiency of the instrument and used to derive radioactivity (1 μCi=2.22×10^6 dpm) per sample. These values were then normalized by tissue weight and the specific radioactivity of the conjugates was reported as a percentage of the injected dosage (% ID/g). The excreted radioactivity (dendrimer) via urine and feces was reported as a percentage of the injected dosage (% ID).
Biodistribution of tritiated dendrimers. […] The mice were maintained on a folate-deficient diet for the duration of the experiment to minimize the circulating levels of folic acid (See, e.g., Mathias et al., J Nucl Med 29, 1579 (1998)). […] Mice were evaluated at various time points (5 minutes to 7 days) following i.v. administration of the conjugates.

[4] = system: KB cells which express a high cell surface FA receptor (FAR); assay: Cellular uptake/binding of dendrimers in high-FAR KB cells, flow cytometry; format: cell-based, human
Experimental: as §1
(§2) Flow Cytometry and Confocal Microscopy. The standard fluorescence of the dendrimer solutions was quantified using a Beckman spectrofluorimeter. For flow cytometric analysis of the uptake of the targeted polymer, cells were trypsinized and suspended in PBS containing 0.1% bovine serum albumin (PBSB) and analyzed using a Becton Dickinson FACScan analyzer. The FL1-fluorescence of 10,000 cells was measured and the mean fluorescence of gated viable cells was quantified. Confocal microscopic analysis was performed in cells plated on a glass cover-slip, using a Carl Ziess confocal microscope. Fluorescence and differential interference contrast (DIC) images were collected simultaneously using an argon laser, using the appropriate filters for FITC.
The cellular uptake of the dendrimers was measured in KB cells which express a high cell surface FA receptor (FAR). The FA-conjugated dendrimers bound to the cells in a dose-dependent fashion, with 50% binding at 10-15 nM for both the G5-FITC-FA and G5-FITC-FA-MTX, while the control dendrimer G5-FITC was not detected in the KB cells (See, e.g., FIG. 18A). Identical binding curves were obtained for the G5-FITC-FA and G5-FITC-FA-MTX when the fluorescence obtained was normalized for the quenching observed in the standard solutions of the dendrimers (See e.g., FIG. 18B).
(§3) The effect of free FA on the uptake of the dendrimers was tested in KB cells that express both high and low FAR. The binding of the conjugates to the low FAR-expressing KB cells was 30% of that of the high FAR-expressing cells for both the G5-FITC-FA and G5-FITC-FA-MTX (See, for e.g., FIG. 19, left panel). […] The binding and internalization of the dendrimers to KB cells was assessed by confocal microscopy. KB cells were incubated with 250 nM of the indicated dendrimers for 24 hours and confocal images were taken. Conjugates containing the targeting molecule FA internalized into KB cells within 24 h (See, e.g., FIG. 20).

[5] = system: low FAR-expressing KB cells; assay: Cellular uptake/binding of dendrimers in low-FAR KB cells, flow cytometry; format: cell-based, human
Experimental: as §1, §2, §3
Time course and dose dependent inhibition of cell growth.

[6] = system: s.c. human KB xenografts; assay: Targeted drug delivery, tumor growth and survival in SCID mice with KB xenografts; format: in vivo, SCID CB-17 mice; details: first trial, up to 15 injections; cumulative 5.0 mg/kg methotrexate equivalents or equimolar dendrimer
Experimental: Recipient animal and tumor model.
Delivery of targeted nanoparticle therapeutic. Twice weekly, SCID mice with s.c. KB xenografts, starting on day 4 after tumor implantation, received via the tail vein an injection of either targeted or nontargeted conjugate containing methotrexate, a conjugate without methotrexate, free methotrexate, or saline as a control. The compounds were delivered in a 0.2 mL volume of saline per 20 g of mouse. The single dose of methotrexate delivered each time equaled 0.33 mg/kg. The higher doses of 1.67 and 3.33 mg/kg free methotrexate were also tested. The conjugates were delivered at equimolar concentration of methotrexate calculated based on the number of methotrexate molecules present in a nanoparticle. The conjugate without methotrexate was delivered at equimolar concentration of dendrimer. In the initial trial, six groups of mice with five mice in each group received up to 15 injections. In the follow-up trial, mice received up to 28 injections dependent on their survival. The body weights of the mice were monitored throughout the experiment as an indication of adverse effects of the drug. Histopathology of multiple organs was done at the termination of each trial and each time mouse had to be euthanized due to toxic effects or tumor burden. Tissues from lung, heart, liver, pancreas, spleen, kidney, and tumor were analyzed. Additionally, cells were isolated from tumors, stained with targeted fluorescein-labeled conjugate, and tested for the presence of folic acid receptors using flow cytometer.
Targeted drug delivery to tumor cells through the folate receptor. The efficacy of different doses of conjugates was tested on SCID CB-17 mice bearing s.c. human KB xenografts and was compared with equivalent and higher doses of free methotrexate. Mice were maintained on the folic acid-deficient diet for 3 weeks before injection of the KB tumor cells to achieve circulating levels of folic acid that approach those in human serum and to prevent down-regulation of folate receptors on tumor xenografts (See, Mathias et al., J Nucl Med 29, 1579 (1998)). Six groups of SCID mice with five mice in each group were injected s.c. on one flank with 5×10^6 KB cells in 0.2 mL PBS suspension. The highest total dose of G5-FI-FA-MTX therapeutic used equals 55.0 mg/kg and is equivalent to a 5.0 mg/kg total cumulative dose of free methotrexate (FIG. 29). The therapeutic dose of the conjugate was compared with three cumulative doses of free methotrexate equivalent to 33.3, 21.7, and 5.0 mg/kg accumulated in 10 to 15 injections based on mouse survival. Saline and the conjugate without methotrexate (G5-FI-FA) were used as controls.

[7] = 50 μM FA, 24 h, then 5 days drug-free, XTT

Molecule	amount in feces [3]	concentration in KB tumor [3]	concentration in liver [3]	time of excretion, primarily through the kidney [3]	inhibition of cell growth, XTT [1]	other results
Nc1nc2ncc(CNc3ccc(C(=O)N[C@@H](CCC(=O)O)C(=O)O)cc3)nc2c(=O)[nH]1 [FA, Folic Acid, reference compound]						effect of excess free FA on growth inhibition by conjugate or free MTX [1, 7]: blocked growth inhibition; increase of cell growth above control cells [1, 7]: 20%; reversal of MTX-induced growth-arrest by FA [2]: almost completely reversed
G5-(Ac)50-(Ac-3H)54 [G5-^3H]	very low amounts	decreased rapidly	decreased rapidly	≤ 24 h		
G5-(Ac)50-(Ac-3H)54-(FA)6 [G5-^3H-FA]	very low amounts	increases over the first 4 days	increases over the first 4 days	≤ 24 h		cumulative clearance compared with G5-3H [3]: lower
G5-(Ac)82-(FITC)5 [G5-FITC]					not growth-inhibitory	detection of dendrimer in KB cells ([4]; control dendrimer without FA): not detected
G5-(Ac)82-(FITC)5-(FA)5 [G5-FITC-FA]					not growth-inhibitory	effect of free FA on uptake, high-FAR expressing cells ([4]; 50 μM FA, dendrimer 30 nM): completely blocked; binding to low FAR-expressing KB cells relative to high FAR-expressing cells [5]: 30%; effect of free FA on uptake, low-FAR expressing cells ([5]; 50 μM FA, dendrimer 30 nM): completely blocked; effect on tumor growth [6]: no therapeutic effect
